Measured values as given in US20250223303A1, “TRICYCLIC BORONIC ACID DERIVATIVE, AND PREPARATION METHOD THEREFOR AND APPLICATION THEREOF” (priority 2021, published 2025).

Key:
[1] = system: Acinetobacter baumannii WX-AB013; experiment: MIC test of compounds in combination with antibiotics, Acinetobacter baumannii WX-AB013; conditions: for MIC of biapenem in combination with compound, Acinetobacter baumannii WX-AB013: Biapenem + compound (8 μg/mL); for MIC of meropenem in combination with compound, Acinetobacter baumannii WX-AB013: Meropenem + compound (8 μg/mL)
Method: (§1) 2-Fold gradient dilution of antibiotics: 300 μL of CAMHVIB medium was added to columns 2-12 of a 96-deep well plate. In column 1, 24 μL of antibiotic stock solution and 576 µL of CAMHB medium were added and mixed well, with a concentration of 512 μg/mL. 300 µL of antibiotic solution was transferred from the column 1 to the second column and mixed well. The process was repeated until column 11, and the column 12 was a blank control.
(§2) Dilution of combined compounds: the compound was diluted 400-fold to 32 μg/ml with CAMHB medium.
(§3) Working solution aliquoting: 25 μL of antibiotics was aliquoted into the 96-U bottom plate with a pipette, and 25 μL of combined compound was added to each well. If antibiotics were used alone, 25 μL of CAMHB medium was added.
(§4) Inoculum solution preparation: 5-6 single colonies were selected from the plate and suspended in normal saline. The bacterial suspension was adjusted to 0.2 (i.e., 0.5 McFarland turbidity, with a bacterial concentration was about 1 to 2×10^8 CFU/mL) with a turbidity meter. The bacterial suspension was diluted 100-fold with CAMHB medium for later use.
(§5) Inoculation: 50 μL of inoculum solution was transferred to the above 50 μL compound plate with a pipette.
(§6) Culture: The 96-U bottom plate was placed in an incubator at 37° C. for 18 to 20 h.

[2] = system: Acinetobacter baumannii WX-AB005; experiment: MIC test of compounds in combination with antibiotics, Acinetobacter baumannii WX-AB005; conditions: for MIC of biapenem in combination with compound, Acinetobacter baumannii WX-AB005: Biapenem + compound (8 μg/mL); for MIC of meropenem in combination with compound, Acinetobacter baumannii WX-AB005: Meropenem + compound (8 μg/mL)
Method: as §1, §2, §3, §4, §5, §6

[3] = system: Acinetobacter baumannii ARLG-1809 OXA-23; experiment: MIC test of compounds in combination with antibiotics, Acinetobacter baumannii ARLG-1809; conditions: for MIC of biapenem in combination with compound, Acinetobacter baumannii ARLG-1809 OXA-23: Biapenem + compound (8 μg/mL); for MIC of meropenem in combination with compound, Acinetobacter baumannii ARLG-1809 OXA-23: Meropenem + compound (8 μg/mL)
Method: as §1, §2, §3, §4, §5, §6

[4] = system: Klebsiella pneumoniae ATCC BAA-2470; experiment: MIC test of compounds in combination with antibiotics, Klebsiella pneumoniae ATCC BAA-2470; conditions: for MIC of biapenem in combination with compound, Klebsiella pneumoniae ATCC BAA-2470 NDM-1: Biapenem + compound (8 μg/mL); for MIC of meropenem in combination with compound, Klebsiella pneumoniae ATCC BAA-2470 NDM-1: Meropenem + compound (8 μg/mL)
[5] = system: Klebsiella pneumoniae ATCC BAA-1705; experiment: MIC test of compounds in combination with antibiotics, Klebsiella pneumoniae ATCC BAA-1705; conditions: for MIC of biapenem in combination with compound, Klebsiella pneumoniae ATCC BAA-1705 KPC-2: Biapenem + compound (8 μg/mL); for MIC of meropenem in combination with compound, Klebsiella pneumoniae ATCC BAA-1705 KPC-2: Meropenem + compound (8 μg/mL)
Method: (§7) Strain preparation: the strains to be tested were streaked from glycerol tube at −80° C. onto Mueller Hinton II Agar plates. The plates were then placed in a 37° C. incubator and cultured for 18-24 hours.
(§8) Media preparation: CAMHB (Mueller Hinton II Broth): 22 g of powder was dissolved in 1 L of purified water and sterilized at 121° C. for 10 min for use. Saline: 8.5 g NaCl was dissolved in 1 L of pure water and sterilized at 121° C. for 30 min for use.
(§9) Preparation of compound and antibiotic stock solutions: the compound and antibiotic were dissolved in DMSO or water to 12.8 mg/mL.
as §1, §2, §3, §4, §5, §6
(§10) After the incubation, bacterial growth was visually observed, and the test plate was photographed and recorded.

[6] = system: Acinetobacter baumannii ARLG-1791 OXA-23; experiment: MIC test of compounds in combination with antibiotics, Acinetobacter baumannii ARLG-1791; conditions: for MIC of biapenem in combination with compound, Acinetobacter baumannii ARLG-1791 OXA-23: Biapenem + compound (8 μg/mL); for MIC of meropenem in combination with compound, Acinetobacter baumannii ARLG-1791 OXA-23: Meropenem + compound (8 μg/mL)
[7] = system: Klebsiella pneumoniae ARLG 1196; experiment: MIC test of compounds in combination with antibiotics, Klebsiella pneumoniae ARLG 1196; conditions: for MIC of biapenem in combination with compound, Klebsiella pneumoniae ARLG-1196 CTM-1 group, SHV, NDM, TEM: Biapenem + compound (8 μg/mL); for MIC of meropenem in combination with compound, Klebsiella pneumoniae ARLG-1196 CTM-1 group, SHV, NDM, TEM: Meropenem + compound (8 μg/mL)
[8] = system: Acinetobacter baumannii ARLG-1852 OXA-23; experiment: MIC test of compounds in combination with antibiotics, Acinetobacter baumannii ARLG-1852; conditions: for MIC of biapenem in combination with compound, Acinetobacter baumannii ARLG-1852 OXA-23: Biapenem + compound (8 μg/mL); for MIC of meropenem in combination with compound, Acinetobacter baumannii ARLG-1852 OXA-23: Meropenem + compound (8 μg/mL)
[9] = system: Acinetobacter baumannii ARLG-1853 OXA-23; experiment: MIC test of compounds in combination with antibiotics, Acinetobacter baumannii ARLG-1853; conditions: for MIC of biapenem in combination with compound, Acinetobacter baumannii ARLG-1853 OXA-23: Biapenem + compound (8 μg/mL); for MIC of meropenem in combination with compound, Acinetobacter baumannii ARLG-1853 OXA-23: Meropenem + compound (8 μg/mL)
[10] = system: Escherichia coli ARLG 2829; experiment: MIC test of compounds in combination with antibiotics, Escherichia coli ARLG 2829; conditions: for MIC of biapenem in combination with compound, Escherichia coli ARLG-2829 NDM-5, OXA-1: Biapenem + compound (8 μg/mL); for MIC of meropenem in combination with compound, Escherichia coli ARLG-2829 NDM-5, OXA-1: Meropenem + compound (8 μg/mL)
Method: as §7, §8, §9, §1, §2, §3, §4, §5, §6, §10

Row | SMILES | MIC of biapenem in combination with compound, Acinetobacter baumannii WX-AB013 [1] | MIC of meropenem in combination with compound, Acinetobacter baumannii WX-AB013 [1] | MIC of biapenem in combination with compound, Acinetobacter baumannii WX-AB005 [2] | MIC of meropenem in combination with compound, Acinetobacter baumannii WX-AB005 [2] | MIC of biapenem in combination with compound, Acinetobacter baumannii ARLG-1809 OXA-23 [3] | MIC of meropenem in combination with compound, Acinetobacter baumannii ARLG-1809 OXA-23 [3] | MIC of biapenem in combination with compound, Klebsiella pneumoniae ATCC BAA-2470 NDM-1 [4] | MIC of meropenem in combination with compound, Klebsiella pneumoniae ATCC BAA-2470 NDM-1 [4] | MIC of biapenem in combination with compound, Klebsiella pneumoniae ATCC BAA-1705 KPC-2 [5] | MIC of meropenem in combination with compound, Klebsiella pneumoniae ATCC BAA-1705 KPC-2 [5] | MIC of biapenem in combination with compound, Acinetobacter baumannii ARLG-1791 OXA-23 [6] | MIC of meropenem in combination with compound, Acinetobacter baumannii ARLG-1791 OXA-23 [6] | MIC of biapenem in combination with compound, Klebsiella pneumoniae ARLG-1196 CTM-1 group, SHV, NDM, TEM [7] | MIC of meropenem in combination with compound, Klebsiella pneumoniae ARLG-1196 CTM-1 group, SHV, NDM, TEM [7] | MIC of biapenem in combination with compound, Acinetobacter baumannii ARLG-1852 OXA-23 [8] | MIC of meropenem in combination with compound, Acinetobacter baumannii ARLG-1852 OXA-23 [8] | MIC of biapenem in combination with compound, Acinetobacter baumannii ARLG-1853 OXA-23 [9] | MIC of meropenem in combination with compound, Acinetobacter baumannii ARLG-1853 OXA-23 [9] | MIC of biapenem in combination with compound, Escherichia coli ARLG-2829 NDM-5, OXA-1 [10] | MIC of meropenem in combination with compound, Escherichia coli ARLG-2829 NDM-5, OXA-1 [10]
1 | O=C(O)c1c(SCCN2CCOCC2)ccc2c1OB(O)C1CC21 (single isomer, unassigned) [Compound 15-a] | 2 µg/mL | 4 µg/mL | 4 µg/mL | 8 µg/mL | 2 µg/mL | 8 µg/mL | 0.25 µg/mL | 8 µg/mL | ≤0.125 µg/mL | ≤0.125 µg/mL | 2 µg/mL | 8 µg/mL | 1 µg/mL | 2 µg/mL | 1 µg/mL | 4 µg/mL | 1 µg/mL | 16 µg/mL | 1 µg/mL | 16 µg/mL
2 | O=C(O)c1c(SCCN2CCOCC2)ccc2c1OB(O)C1CC21 (single isomer, unassigned) [Compound 15-b] | 1 µg/mL | 4 µg/mL | 2 µg/mL | 4 µg/mL | 1 µg/mL | 2 µg/mL | ≤0.125 µg/mL | 1 µg/mL | ≤0.125 µg/mL | ≤0.125 µg/mL | 0.5 µg/mL | 4 µg/mL | ≤0.125 µg/mL | ≤0.125 µg/mL | 0.25 µg/mL | 2 µg/mL | 0.25 µg/mL | 4 µg/mL | 0.25 µg/mL | 1 µg/mL
3 | CC(Sc1ccc2c(c1C(=O)O)OB(O)C1CC21)C1CC1 (single isomer, unassigned) [Compound 16-a] | 0.5 µg/mL | 4 µg/mL | 2 µg/mL | 8 µg/mL | 1 µg/mL | 2 µg/mL | 1 µg/mL | 2 µg/mL | 0.5 µg/mL | 4 µg/mL | 0.5 µg/mL | 4 µg/mL | 0.5 µg/mL | 1 µg/mL | 0.25 µg/mL | 2 µg/mL | 0.5 µg/mL | 2 µg/mL | 0.25 µg/mL | 2 µg/mL
4 | CC(Sc1ccc2c(c1C(=O)O)OB(O)C1CC21)C1CC1 (single isomer, unassigned) [Compound 16-b] | 2 µg/mL | 4 µg/mL | 4 µg/mL | 8 µg/mL | 2 µg/mL | 4 µg/mL | 1 µg/mL | 16 µg/mL | 0.25 µg/mL | 2 µg/mL | 1 µg/mL | 8 µg/mL | 0.5 µg/mL | 8 µg/mL | 0.5 µg/mL | 4 µg/mL | 1 µg/mL | 8 µg/mL | 0.5 µg/mL | 16 µg/mL
5 | CC(Sc1ccc2c(c1C(=O)O)OB(O)C1CC21)C1CC1 (single isomer, unassigned) [Compound 16-c] | 2 µg/mL | 4 µg/mL | 4 µg/mL | 8 µg/mL | 2 µg/mL | 4 µg/mL | 0.5 µg/mL | 8 µg/mL | 1 µg/mL | 8 µg/mL | 1 µg/mL | 8 µg/mL | 1 µg/mL | 2 µg/mL | 1 µg/mL | 4 µg/mL | 1 µg/mL | 4 µg/mL | ≤0.125 µg/mL | 4 µg/mL
